The values below come from patent US20220386606A1, “SPECIFICALLY SUBSTITUTED 3-PHENYL-5-SPIROCYCLOPENTYL-3-PYRROLIN-2-ONES AND THEIR USE AS HERBICIDES” (Bayer Aktiengesellschaft, priority 2019, published 2022).

The test system of one assay is VIOTR. The assay is described as follows: Pre-emergence herbicidal action against VIOTR. In kind it is in vivo, Viola tricolor. To be noted: 320 g/ha. An outline of the steps:
(§1)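 Visual scoring after 3 weeks in the greenhouse gives percent activity (100% = dead, 0% = like untreated). Compounds, formulated as WP or EC, were applied to the soil surface over freshly sown seeds in sandy loam, water rate 600 to 800 L/ha plus 0.2% wetting agent.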

The test system of assay [1] is ALOMY. The assay is described as follows: Post-emergence herbicidal action against ALOMY. In kind it is in vivo, Alopecurus myosuroides. To be noted: 80 g/ha, visual assessment after about 3 weeks. An outline of the steps:
(§2)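 Herbicidal action is rated visually in percent against untreated controls, where 100% means dead plants and 0% means no difference. Ratings come about 3 weeks after foliar spraying of one-leaf-stage plants with aqueous WP or EC preparations plus 0.2% wetting agent at 600 to 800 l/ha.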

The subject of assay [2] is DIGSA. Put plainly: Post-emergence herbicidal action against DIGSA. The format is in vivo, Digitaria sanguinalis. The conditions noted are these: 80 g/ha, visual assessment about 3 weeks after treatment vs untreated controls. An outline of the steps:
as §2

In the next assay the test system is MATIN. The assay is described as follows: Pre-emergence herbicidal action against MATIN. The format is in vivo. To be noted: 320 g/ha. An outline of the steps:
as §1

For the next assay, the system named is POLCO. The assay is described as follows: Pre-emergence herbicidal action against POLCO. In kind it is in vivo, Polygonum convolvulus. To be noted: 320 g/ha. The source says: Seeds of monocotyledonous and dicotyledonous weed plants and crop plants are laid out in sandy loam soil in wood-fiber pots and covered with soil. The compounds of the invention, formulated in the form of wettable powders (WP) or as emulsion concentrates (EC), are then applied to the surface of the covering soil as aqueous suspension or emulsion at a water application rate equating to 600 to 800 L/ha with addition of 0.2% wetting agent.
After the treatment, the pots are placed in a greenhouse and kept under good growth conditions for the trial plants. The damage to the test plants is scored visually after a test period of 3 weeks by comparison with untreated controls (herbicidal activity in percent (%): 100% activity=the plants have died, 0% activity=like control plants).

Assay [3] has as its system AVEFA. The assay is described as follows: Post-emergence herbicidal action against AVEFA. The conditions noted are these: 80 g/ha, visual assessment after about 3 weeks. The format is in vivo, Avena fatua. An outline of the steps: as §2
For assay [4], the system named is SETVI. The assay is described as follows: Pre-emergence herbicidal action against SETVI. To be noted: 320 g/ha, scored visually after 3 weeks vs untreated controls. The format is in vivo, Setaria viridis. In short, it runs like this: as §1
Assay [5] concerns ALOMY. The assay is described as follows: Pre-emergence herbicidal action against ALOMY. The conditions noted are these: 320 g/ha, scored visually after 3 weeks vs untreated controls. The format is in vivo, Alopecurus myosuroides. An outline of the steps: as §1
Assay [6] concerns SETVI. Put plainly: Post-emergence herbicidal action against SETVI. To be noted: 80 g/ha, visual assessment about 3 weeks after treatment vs untreated controls. In kind it is in vivo, Setaria viridis. In short, it runs like this:
as §2

Assay [7] has as its system LOLRI. Put plainly: Pre-emergence herbicidal action against LOLRI (Table 8, titled post-emergence at 320 g/ha). The conditions noted are these: table stands in the pre-emergence section. The format is in vivo, Lolium rigidum. An outline of the steps: as §1
Assay [8] concerns LOLRI. Put plainly: Post-emergence herbicidal action against LOLRI. The format is in vivo, Lolium rigidum. To be noted: 80 g/ha, visual assessment about 3 weeks after treatment vs untreated controls. An outline of the steps: as §2
In assay [9] the test system is AVEFA. The assay is described as follows: Pre-emergence herbicidal action against AVEFA. In kind it is in vivo, Avena fatua. The conditions noted are these: 320 g/ha, scored visually after 3 weeks vs untreated controls. In short, it runs like this: as §1
A further assay deals with AMARE. The assay is described as follows: Pre-emergence herbicidal action against AMARE. The format is in vivo, Amaranthus retroflexus. To be noted: 320 g/ha. An outline of the steps:
as §1

The test system of assay [10] is ECHCG. Put plainly: Pre-emergence herbicidal action against ECHCG. In kind it is in vivo, Echinochloa crus-galli. To be noted: 320 g/ha, scored visually after 3 weeks vs untreated controls. An outline of the steps: as §1
For assay [11], the system named is ECHCG. Put plainly: Post-emergence herbicidal action against ECHCG. In kind it is in vivo, Echinochloa crus-galli. The conditions noted are these: 80 g/ha, visual assessment about 3 weeks after treatment vs untreated controls. An outline of the steps:
as §2

Assay [12] concerns DIGSA. Put plainly: Pre-emergence herbicidal action against DIGSA. In kind it is in vivo, Digitaria sanguinalis. The conditions noted are these: 320 g/ha, scored visually after 3 weeks vs untreated controls. In short, it runs like this: as §1
A further assay has as its system VERPE. Put plainly: Pre-emergence herbicidal action against VERPE. The conditions noted are these: 320 g/ha. In kind it is in vivo, Veronica persica. In short, it runs like this:
as §1

The next assay concerns ABUTH. Put plainly: Post-emergence herbicidal action against ABUTH. The format is in vivo, Abutylon threophrasti. The conditions noted are these: 80 g/ha, visual assessment about 3 weeks after treatment vs untreated controls. On the procedure: Seeds of monocotyledonous and dicotyledonous weed and crop plants are laid out in sandy loam soil in wood-fiber pots, covered with soil and cultivated in a greenhouse under good growth conditions. 2 to 3 weeks after sowing, the test plants are treated at the one-leaf stage. The compounds of the invention, formulated in the form of wettable powders (WP) or as emulsion concentrates (EC), are then sprayed onto the green parts of the plants as aqueous suspension or emulsion at a water application rate equating to 600 to 800 l/ha with addition of 0.2% wetting agent. After the test plants have been left to stand in the greenhouse under optimal growth conditions for about 3 weeks, the action of the preparations is assessed visually in comparison to untreated controls (herbicidal action in percent (%): 100% activity=the plants have died, 0% activity=like control plants).

As to `CC#Cc1cc(C)c(C2=C(OC(=O)C(C)C)C3(CCC(COCC)C3)NC2=O)c(OC)c1` (centres unmarked) [Example P-60], in the assay on VIOTR, the “Pre-emergence action against VIOTR in %” value came to 100%. The “Post-emergence action against ALOMY in %” value with ALOMY [1] was 100%. Moreover, the “Post-emergence action against DIGSA in %” value with DIGSA [2] was 90%. Besides, the “Pre-emergence action against MATIN in %” value in the assay with MATIN worked out at 90%. For the same compound, in the assay on POLCO, the “Pre-emergence action against POLCO in %” value was determined as 80%. The “Post-emergence action against AVEFA in %” value with AVEFA [3] amounted to 100%. In addition, in the assay on SETVI [4], the “Pre-emergence action against SETVI in %” value came to 100%. In the assay with ALOMY [5], the “Pre-emergence action against ALOMY in %” value is 100%. For the same compound, in the assay on SETVI [6], the “Post-emergence action against SETVI in %” value stood at 100%. For the same compound, the “Pre-emergence herbicidal action against LOLRI in %” value with LOLRI [7] came to 100%. In the assay with LOLRI [8], the “Post-emergence action against LOLRI in %” value is 100%. Further, the “Pre-emergence action against AVEFA in %” value with AVEFA [9] was 100%. In addition, the “Pre-emergence action against AMARE in %” value in the assay on AMARE was 100%. Also, the “Pre-emergence action against ECHCG in %” value in the assay on ECHCG [10] came to 100%. In the assay on ECHCG [11], the “Post-emergence action against ECHCG in %” value is reported as 100%. The “Pre-emergence action against DIGSA in %” value with DIGSA [12] is given as 100%. The “Pre-emergence action against VERPE in %” value with VERPE amounted to 80%.

On to `CC#Cc1cc(C)c(C2=C(O)C3(CCC(COCCOC)C3)NC2=O)c(Cl)c1` (centres unmarked) [Example I-51], for which, in the assay on VIOTR, the “Pre-emergence action against VIOTR in %” value amounted to 100%. For the same compound, the “Post-emergence action against ALOMY in %” value in the assay on ALOMY [1] is given as 100%. Moreover, the “Post-emergence action against DIGSA in %” value in the assay with DIGSA [2] is 100%. In the assay with MATIN, the “Pre-emergence action against MATIN in %” value amounted to 100%. For the same compound, the “Pre-emergence action against POLCO in %” value in the assay with POLCO was found to be 80%. Moreover, the “Post-emergence action against AVEFA in %” value with AVEFA [3] was found to be 100%. For the same compound, in the assay with SETVI [4], the “Pre-emergence action against SETVI in %” value stood at 100%. Also, the “Pre-emergence action against ALOMY in %” value in the assay with ALOMY [5] was 100%. Also, in the assay on SETVI [6], the “Post-emergence action against SETVI in %” value was 100%. Moreover, the “Pre-emergence herbicidal action against LOLRI in %” value with LOLRI [7] is 100%. For the same compound, the “Post-emergence action against LOLRI in %” value with LOLRI [8] came to 90%. In the assay with AVEFA [9], the “Pre-emergence action against AVEFA in %” value is 100%. In addition, the “Pre-emergence action against AMARE in %” value in the assay with AMARE was 100%. The “Pre-emergence action against ECHCG in %” value with ECHCG [10] is reported as 100%. Also, in the assay on ECHCG [11], the “Post-emergence action against ECHCG in %” value is reported as 100%. The “Pre-emergence action against DIGSA in %” value in the assay on DIGSA [12] amounted to 100%. For the same compound, the “Pre-emergence action against VERPE in %” value in the assay on VERPE is listed as 100%.

On to `CC#Cc1cc(C)c(C2=C(OC(=O)C(C)C)C3(CCC(COC)C3)NC2=O)c(Br)c1` (centres unmarked) [Example P-33], for which the “Pre-emergence action against VIOTR in %” value in the assay on VIOTR was 100%. For the same compound, in the assay with ALOMY [1], the “Post-emergence action against ALOMY in %” value is reported as 100%. For the same compound, the “Post-emergence action against DIGSA in %” value in the assay on DIGSA [2] was 100%. Moreover, in the assay with POLCO, the “Pre-emergence action against POLCO in %” value is 100%. Also, in the assay with AVEFA [3], the “Post-emergence action against AVEFA in %” value is on record as 90%. In addition, the “Pre-emergence action against SETVI in %” value in the assay with SETVI [4] is on record as 100%. Further, the “Pre-emergence action against ALOMY in %” value in the assay on ALOMY [5] was found to be 100%. Moreover, the “Post-emergence action against SETVI in %” value in the assay with SETVI [6] amounted to 100%. Further, the “Pre-emergence herbicidal action against LOLRI in %” value with LOLRI [7] was found to be 100%. In the assay with LOLRI [8], the “Post-emergence action against LOLRI in %” value was found to be 100%. Further, the “Post-emergence action against ABUTH in %” value in the assay on ABUTH was 80%. Moreover, in the assay with AVEFA [9], the “Pre-emergence action against AVEFA in %” value is 100%. Further, the “Pre-emergence action against AMARE in %” value in the assay with AMARE was 100%. In addition, in the assay with ECHCG [10], the “Pre-emergence action against ECHCG in %” value is given as 100%. For the same compound, the “Pre-emergence action against DIGSA in %” value in the assay with DIGSA [12] was determined as 100%. Besides, in the assay with VERPE, the “Pre-emergence action against VERPE in %” value was 80%.
